Where two headings read alike, the source gives them in different places. Marks after values point to notes of the source that are not given here.
Experiments:
[1] = system: C57Bl/6J mice fed with high-fat diet; conditions: sitagliptin 0.004% in diet 12 weeks; vildagliptin 30 mg/kg/day 7 weeks; alogliptin 0.03% (wt/wt) in diet for life span; cited from earlier work
[2] = system: high-fat diet-induced obese (DIO) mice; type: in vivo; conditions: in words; for high-density lipoprotein (HDL) levels: vs vehicle controls
Method: This Example provides the results from an in vivo study of denatonium acetate and sitagliptin in high-fat diet-induced obese (DIO) mice. C57BL/6NTac mice (at least 12 weeks of age) were fed with a high fat diet. All mice were dosed orally by gavage as (a) Vehicle group (N=15) dosed with distilled water BID, (b) DA group (N=15) dosed at 75 mg/kg (denatonium weight) BID; (c) sitagliptin group (N=15) dosed by gavage with 10 mg/kg QD; and (d) DA+ sitagliptin group (N=15) treated with DA at 75 mg/kg (denatonium based weight) BID and sitagliptin at 10 mg/kg by gavage QD. The groups were dosed for 8 weeks followed by a 5-7 day […] period. Body weight and body weight changes were measured three times per week. Serum biomarker levels for blood glucose (after fasting 6-8 hours), blood insulin, percentage of blood HvA1c, HDL, LDL, total triglycerides (TG), total cholesterol (TC) and bile acid were measured twice during the study at day 28 and at the end (day 56) of the study. Cumulative food intake and water consumption for each animal was measured.

[3] = 18 weeks, on metformin; saxagliptin 5 mg daily; sitagliptin 100 mg; cited from earlier work
[4] = in words; cited from earlier work
ob/ob mice = conditions: sitagliptin 0.0018% in diet 12 weeks; alogliptin 42.2 mg/kg/day 28 days; cited from earlier work
[5] = cited from earlier work; for Effect on Body Weight (placebo-adjusted change from baseline) / Effect on HbA1c (placebo-adjusted change from baseline) / Effect on Body Weight (placebo-adjusted change from baseline), percent: QD 24-26 weeks
[6] = semaglutide 3 mg, sitagliptin 100 mg, saxagliptin 2.5 mg, vildagliptin 50 mg, alogliptin 12.5 mg, linagliptin 5 mg
[7] = semaglutide 7 mg, sitagliptin 200 mg, saxagliptin 5 mg, vildagliptin 100 mg, alogliptin 25 mg
[8] = sitagliptin alone or in combination compared with controls, meta-analysis results

N[C@@H](CC(=O)N1CCn2c(nnc2C(F)(F)F)C1)Cc1cc(F)c(F)cc1F [Sitagliptin, (2R)-4-oxo-4-[3-(trifluoromethyl)-5,6-dihydro[1,2,4]triazolo[4,3-a]pyrazin-7(8H)-yl]-1-(2,4,5-trifluorophenyl)butan-2-amine]
Control-adjusted Percent Change in Body Weight Gain [1]: −45.8%*
Control-adjusted Percent Change in Fasting Blood Glucose [1]: −20.9%*
Control-adjusted Percent Change in Insulin Level [1]: −41.7%
high-density lipoprotein (HDL) levels ([2]; FIG. 22A): significantly decreased high-density lipoprotein (HDL) levels
high-density lipoprotein (HDL) levels ([2]; day 56 (FIG. 22B)): significantly decreased high-density lipoprotein (HDL) levels
weight loss ([2]; 56-day study summary): no weight loss effect was seen with longer duration dosing
effect on body weight (relative body weight percentage and relative body weight change) ([2]; DA 75 mg/kg BID, sitagliptin 10 mg/kg QD by gavage, 8 weeks): least effect on body weight
reductions in hemoglobin A1c (HbA1c) [3]: −0.26%
excretion and metabolism [4]: renally excreted with minimal liver metabolism (via CYP3A4 and CYP2C8)
Control-adjusted Percent Change in Fasting Blood Glucose (ob/ob mice): −23.4%*
Control-adjusted Percent Change in Insulin Level (ob/ob mice): +148%*
Control-adjusted Percent Change in TG Level (ob/ob mice): −43.2%*
Effect on Body Weight (placebo-adjusted change from baseline) [5, 6]: 100 mg: +0.9 kg
Effect on HbA1c (placebo-adjusted change from baseline) [5, 6]: 100 mg: −0.79%
Effect on Body Weight (placebo-adjusted change from baseline), percent ([5]; semaglutide 3 mg, sitagliptin 100 mg, saxagliptin 2.5 mg, vildagliptin 50 mg): (+1.1%)
Effect on Body Weight (placebo-adjusted change from baseline) [5, 7]: 200 mg: +1.0 kg
Effect on HbA1c (placebo-adjusted change from baseline) [5, 7]: 200 mg: −0.94%
Effect on Body Weight (placebo-adjusted change from baseline), percent ([5]; semaglutide 7 mg, sitagliptin 200 mg, saxagliptin 5 mg, vildagliptin 100 mg): (+1.2%)
HDL-C, weighted mean difference (WMD) [5, 8]: 0.05 mmol/L) ^$$$
serum TG, weighted mean difference [WMD] [5, 8]: [WMD] −0.24 mmol/L
